From ChEMBL document CHEMBL1201862, “PubChem BioAssay data set” (2004)
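Interpolation was linear, between the two tested concentrations surrounding the appropriate level; five concentrations were tested over 48 hours in 96-well plates. Abbreviation: GI50, concentration required for 50% inhibition of growth.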 Activity calls are given as the source filed them. No stated cut-off is given here; in the data, active = GI50 up to about 1.1 µM and inactive = higher.

Experiments:
Experiment in all cases: DTP human tumour cell line panel, 48 h
SK-MEL-2 = tested on: SK-MEL-2
NCI-H460 = tested on: NCI-H460
A549 = tested on: A549
NCI/ADR-RES = tested on: NCI/ADR-RES
SK-OV-3 = tested on: SK-OV-3
SNB-19 = tested on: SNB-19
CAKI-1 = tested on: CAKI-1
SF-295 = tested on: SF-295
ACHN = tested on: ACHN
OVCAR-5 = tested on: OVCAR-5
SNB-75 = tested on: SNB-75
NCI-H522 = tested on: NCI-H522
HCC 2998 = tested on: HCC 2998
DU-145 = tested on: DU-145
NCI-H226 = tested on: NCI-H226
COLO 205 = tested on: COLO 205
TK-10 = tested on: TK-10
HL-60 = tested on: HL-60
NCI-H23 = tested on: NCI-H23
HT-29 = tested on: HT-29

SMILES	GI50 (SK-MEL-2)	GI50 (NCI-H460)	GI50 (A549)	GI50 (NCI/ADR-RES)	GI50 (SK-OV-3)	GI50 (SNB-19)	GI50 (CAKI-1)	GI50 (SF-295)	GI50 (ACHN)	GI50 (OVCAR-5)	GI50 (SNB-75)	GI50 (NCI-H522)	GI50 (HCC 2998)	GI50 (DU-145)	GI50 (NCI-H226)	GI50 (COLO 205)	GI50 (TK-10)	GI50 (HL-60)	GI50 (NCI-H23)	GI50 (HT-29)
COC1C(OC(=O)/C=C/C=C/C=C/C=C/C(=O)O)CCC2(CO2)C1C1(C)OC1CC=C(C)C (stereo not given)	5.01 µM (inactive)	0.112 µM (active)	18.5 µM (inactive)	> 63.8 µM (inactive)	> 59.6 µM (inactive)	> 56.1 µM (inactive)	43.8 µM (inactive)	17.3 µM (inactive)	18.5 µM (inactive)	> 78.2 µM (inactive)	25.3 µM (inactive)	23.2 µM (inactive)	26 µM (inactive)	35.2 µM (inactive)	42.8 µM (inactive)	12.4 µM (inactive)	57.9 µM (inactive)	16.4 µM (inactive)	25 µM (inactive)	21.1 µM (inactive)
O[C@@]1(c2cccs2)c2cccc(Cl)c2[C@](O)(c2cccs2)c2cccc(Cl)c21	18.2 µM (inactive)	16.9 µM (inactive)	14.9 µM (inactive)	22.6 µM (inactive)	22.6 µM (inactive)	26.7 µM (inactive)	24.4 µM (inactive)	11.1 µM (inactive)	17 µM (inactive)	16.2 µM (inactive)	> 100 µM (inactive)	18.2 µM (inactive)	17.6 µM (inactive)	24.7 µM (inactive)	22.1 µM (inactive)	19.5 µM (inactive)	28.1 µM (inactive)	16.6 µM (inactive)	18.1 µM (inactive)	17.2 µM (inactive)
Cc1nnc2sc(-c3ccc(N)cc3)nn12	> 100 µM (inactive)	> 100 µM (inactive)	> 100 µM (inactive)	> 100 µM (inactive)	> 100 µM (inactive)	> 100 µM (inactive)	> 100 µM (inactive)	> 100 µM (inactive)	> 100 µM (inactive)	> 100 µM (inactive)	21.3 µM (inactive)	> 100 µM (inactive)	> 100 µM (inactive)	> 100 µM (inactive)	> 100 µM (inactive)	> 100 µM (inactive)	> 100 µM (inactive)	> 100 µM (inactive)	> 100 µM (inactive)	> 100 µM (inactive)
